Laboratory results taken from patent publication US11851697B2, “Ex vivo protease activity detection for disease detection/diagnostic, staging, monitoring and treatment” (Glympse Bio, Inc., priority 2020, dated 2023).
Square brackets hold non-standard residues; d marks the D form. Primed or numbered codes have the meaning given here. Ends that are not written are not given here. CPQ2(3) = quencher on Lys side chain; FAM = fluorescent reporter; PEG2″ = PEG2 spacer; CPQ2 = quencher

Assays:
[1] = tested on: COVID-related proteases; assay: Ex vivo probe cleavage in COVID vs healthy K2EDTA and Lithium Heparin plasma; format: biochemical
[2] = tested on: proteases in NASH and healthy plasma cleaving Probe #102; assay: Inhibitor profiling of Probe #102 cleavage in NASH and healthy plasma; format: biochemical, mice
Procedure: For this experiment, all plasma samples were prepared individually and diluted 1/10e in PBS with inhibitor added directly to the samples. Inhibitor was prepared at 15× concentration to final. Substrates were diluted in DI water at 18 uM, such that the final concentration on the plate would be 6 uM. All samples were prepared such that their last dilution on the plate would not affect the desired final concentration. 10 ul of each individual sample was pipetted into their corresponding wells, and the plate was then spun down in the centrifuge at 1500 RPM for 30 seconds to coat the bottom of each well with the sample. 5 ul of the 18 uM substrate solution was pipetted into each well being used on a 384 well plate, and then the plate was spun down in the centrifuge at 1500 rpm for 30 seconds. The plate was placed immediately in the plate reader at 37° C. for a 30-minute-long fluorescence kinetic read at 485/535 extended gain.
To assess the proteolytic cleavage pattern of Probe #102, samples were tested using a pool of broad inhibitors for serine, cysteine, threonine, MMP and aspartic protease family members (broad inhibitor) to assess general protease activity, AEBSF for serine proteases, E64 for cysteine proteases, CTSi for broad cathepsin inhibition of cathepsins L, S, K and B, or specific inhibitors for cathepsin K (L00625), for cathepsin L (SID) or cathepsin B (CA074).

[3] = tested on: cathepsin and/or MMP protease activities; assay: Ex vivo probe cleavage in plasma of healthy, NASH regression and NASH progression mice; format: biochemical; details: K2EDTA plasma collected at 20 weeks
Text: Plasma samples were collected from all animals at 20 weeks.
The probes showing the most differentiation in NASH were linked to cathepsin and/or MMP protease activities.

[4] = cited from earlier work
[5] = tested on: caspase activity in hepatitis; assay: Ex vivo probe cleavage in plasma of Jo2 fulminant hepatitis mice; format: biochemical; details: mouse plasma 3 hours after Jo2 injection vs healthy
Procedure: Fulminant hepatitis is induced after injection intraperitoneal of monoclonal antibody anti-CD95 (Jo2, BD biosciences, 4 ug/animal), and mouse plasma samples were collected 3 hours after Jo2 injection.

[6] = both K2EDTA and Lithium Heparin plasma sets

In the case of “Probe #84: a Furin substrate (GRVKRGLAGK(CPQ2); not fully specified (N-terminus, C-terminus); also: 5-FAM (place not given here), PEG2-kk-GC (place not given here))”, the “differential cleavage between COVID and healthy samples” value [1, 6] is reported as “demonstrated contrast in both sets”.
In the case of `NCCc1ccc(S(=O)(=O)F)cc1` [AEBSF], the “decrease of NASH signal” value ([2]; NASH plasma, Probe #102) is reported as 65% and the “decrease of healthy signal” value ([2]; healthy plasma, Probe #102) is reported as 60%.
With “Probe #96: probe of Table 1 ({FAM}-GRPLALWESQGK(CPQ2)[PEG2″][dK]GC; not fully specified; printed as (FAM)-GRPLALWESQG-K(CPQ2)-PEG2-k-GC; also: FAM, position not given here)” the “differentiation among healthy, regression and NASH samples” value (from here on “differentiation among healthy”) [3] was “can differentiate”.
For “Probe #428: probe of Table 1 ({FAM}-GDRRKKLTQGK(CPQ2(3))[PEG2″][dK][dK]GC; not fully specified; printed as (FAM)-GDRRKKLTQG-K(CPQ2)-(PEG2)-DLys-DLys-GC)”, the “differentiation among healthy” value [3] was “can differentiate”.
With `CC(C)C[C@H](NC(=O)[C@H]1O[C@@H]1C(=O)O)C(=O)NCCCCN=C(N)N` [Probe E64, E64] the “effect on NASH signal” value ([2]; NASH plasma, Probe #102, less decrease in signal for healthy) was “decreased NASH signal significantly”.
For `CN1CCN(c2nc(-c3ccc(C(=O)NC4(C(=O)NCC#N)CCCCC4)cc3)cs2)CC1` [Probe L006235], the “effect on signal for NASH or healthy samples” value ([2]; Probe #102) was “did not significantly decrease signal”.
In the case of “Probe #409: the SARS CoV2 coronavirus substrate (SARS-COV2 3C protease) (GTSAVLQSGFRKGK(CPQ2); not fully specified (N-terminus, C-terminus); also: 5-FAM (place not given here), PEG2-kk-GC (place not given here))”, the “differential cleavage between COVID and healthy samples” value ([1]; K2 EDTA samples) is reported as “modest contrast”.
For `O=c1[nH]c(-c2ccccc2O)nc2ccccc12` [HPQ, 2-(2″-hydroxyphenyl)-4(3H)-quinazolinone], the solubility in water [4] is given as “strictly insoluble in water”.
For “Probe #102: a CTSL sensing probe; sequence in Table 1 ({FAM}-GKPILFFRLKGK(CPQ2(3))[PEG2″][dK][dK]GC; not fully specified; printed as (FAM)-GKPILFFRLKG-K(CPQ2)-PEG2-kk-GC)”, the “protease to which the probe responds” value ([2]; individual cathepsin inhibitors, FIG. 30D-F) was “specifically responds to the activity of cathepsin L (CTSL)” and the “differentiation among healthy” value [3] was “can differentiate”.
In the case of “Probe #12: Caspase centric probe (GDEVDGK; not fully specified; 5-FAM, CPQ2 quencher, PEG2; MOD_RES (7)..(7) Lys modified with a CPQ2 quencher)”, the “contrast in Jo2 hepatitis model” value [5] is reported as “show contrast that is specific and sensitive to the Jo2 model”.
In the case of `O=c1nc(-c2cc(C(=C(c3ccccc3)c3ccccc3)c3ccccc3)ccc2O)[nH]c2ccc(Cl)cc12` [HTPQ], the solubility in water [4] is listed as “strictly insoluble in water”.
With “Probe #18: a Neutrophil elastase substrate (GAAPVGK(CPQ2); not fully specified (N-terminus, C-terminus); also: 5-FAM (place not given here), PEG2-kk-GC (place not given here))” the “differential cleavage between COVID and healthy samples” value [1, 6] was “demonstrated contrast in both sets”.
With “Probe #462: a MMP8 substrate (GKKAKRNALGK(CPQ2); not fully specified (N-terminus, C-terminus); also: FAM (place not given here), PEG2, DLys-DLys-GC (place not given here))” the “differential cleavage between COVID and healthy samples” value [1, 6] was “demonstrated contrast in both sets”.
For `CCCNC(=O)[C@H]1O[C@@H]1C(=O)N[C@H](C(=O)N1CCC[C@H]1C(=O)O)[C@@H](C)CC` [CA074], the “effect on signal for NASH or healthy samples” value ([2]; Probe #102) was “did not significantly decrease signal”.
With “Probe #520: probe of Table 1 (GKPISLISSGK; not fully specified; 5FAM, CPQ2 quencher, PEG2; MOD_RES (11)..(11) Lys modified with a CPQ2 quencher)” the “differentiation among healthy” value [3] was “can differentiate”.
With “Probe #492: probe of Table 1 ({FAM}-GQRANSIRVTWGK(CPQ2(3))[PEG2″][dK][dK]GC; not fully specified; printed as (FAM)-GQRANSIRVTWG-K(CPQ2)-(PEG2)-DLys-DLys-GC)” the “differentiation among healthy” value [3] was “can differentiate”.
For “Probe #8: Caspase centric probe (GVDVADGK; not fully specified; 5-FAM, CPQ2 quencher, PEG2; MOD_RES (8)..(8) Lys modified with a CPQ2 quencher)”, the “contrast in Jo2 hepatitis model” value [5] was “show contrast that is specific and sensitive to the Jo2 model”.
